Where a SMILES comes first, the peptide text is derived from it. [ ]: non-standard residue; d: D form. The star is where a group is joined. Bip(2'-Et,4'-O(CH2)4NH2) = CCc1cc(OCCCCN)ccc1-c1ccc(C[C@H](N)C(=O)O)cc1; Malonyl(2,2-Me2,histaminyl) = CC(C)(C(=O)NCCc1cnc[nH]1)C(=O)*; Nva(5-(3,5-Me2Ph)) = Cc1cc(C)cc(CCC[C@H](N)C(=O)O)c1; Ala(1H-tetrazol-5-yl) = N[C@@H](Cc1nnn[nH]1)C(=O)O; αMePhe(2-F) = C[C@](N)(Cc1ccccc1F)C(=O)O
Columns and labels:
[1] = biological target: T1, human glucagon-like peptide 2 receptor (GLP2R) (Homo sapiens, UniProt O95838); assay: CRE-luciferase reporter assay, HEK293/Myc-hGLP2R/Cre-Luc (Example 9); assay type: cell-based; details: Table 5C
T1 construct: full-length human GLP1R, cynomolgus GLP1R, human glucagon receptor (GCGR), human glucagon-like peptide 2 receptor (GLP2R); expressed in transfected cells; host or cells: HEK293/CRE-Luc
T1 sequence (O95838 1-553): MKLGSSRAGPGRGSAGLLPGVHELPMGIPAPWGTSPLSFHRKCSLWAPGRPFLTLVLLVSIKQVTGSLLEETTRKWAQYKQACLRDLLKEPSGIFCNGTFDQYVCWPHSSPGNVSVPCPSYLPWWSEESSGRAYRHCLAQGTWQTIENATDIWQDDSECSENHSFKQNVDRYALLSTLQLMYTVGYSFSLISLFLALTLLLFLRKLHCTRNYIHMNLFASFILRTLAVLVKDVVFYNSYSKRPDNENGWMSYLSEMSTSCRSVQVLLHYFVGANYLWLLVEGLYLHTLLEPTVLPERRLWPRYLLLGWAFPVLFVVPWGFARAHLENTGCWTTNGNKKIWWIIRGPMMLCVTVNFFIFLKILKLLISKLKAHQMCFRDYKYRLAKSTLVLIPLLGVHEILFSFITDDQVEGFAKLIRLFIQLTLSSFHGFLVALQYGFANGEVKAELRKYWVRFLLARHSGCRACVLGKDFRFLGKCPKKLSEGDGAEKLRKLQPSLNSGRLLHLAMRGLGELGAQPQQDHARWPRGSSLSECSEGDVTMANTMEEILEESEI
Protocol: (§1) To test the activity of GLP1R agonist payloads and GLP1R agonist linker-payloads (LPs) in vitro, a cell-based cAMP responsive luciferase reporter assay was developed.
(§2) Cells were incubated overnight at 37° C. in 5% CO2. […] Plates were incubated for 5.5 h at 37° C. in 5% CO2. For end-point measurement, 100 μL/well of One-Glo reagent (Promega, #E6051) was added and plates were kept at room temperature for 5-10 minutes. Luciferase activity was measured on Envision Multilabel Plate Reader (Perkin Elmer) in Luminescent mode. The relative light units (RLU) values were obtained and the results were analyzed using nonlinear regression with GraphPad Prism software (GraphPad).

[2] = biological target: T2, human glucagon receptor (GCGR) (Homo sapiens, UniProt P47871); assay: CRE-luciferase reporter assay, HEK293/Myc-hGCGR/Cre-Luc (Example 9); assay type: cell-based; details: Table 5C
T2 construct: full-length human GLP1R, cynomolgus GLP1R, human glucagon receptor (GCGR); expressed in transfected cells; host or cells: HEK293/CRE-Luc
Protocol: as §1, §2

[3] = biological target: T3, human gastric inhibitory polypeptide receptor (GIPR) (Homo sapiens, UniProt P48546); assay: CRE-luciferase reporter assay, HEK293/Myc-hGIPR/Cre-Luc (Example 9); assay type: cell-based; set-up: Myc; expressed in transfected cells; details: Table 5C
T3 sequence (P48546 22-466): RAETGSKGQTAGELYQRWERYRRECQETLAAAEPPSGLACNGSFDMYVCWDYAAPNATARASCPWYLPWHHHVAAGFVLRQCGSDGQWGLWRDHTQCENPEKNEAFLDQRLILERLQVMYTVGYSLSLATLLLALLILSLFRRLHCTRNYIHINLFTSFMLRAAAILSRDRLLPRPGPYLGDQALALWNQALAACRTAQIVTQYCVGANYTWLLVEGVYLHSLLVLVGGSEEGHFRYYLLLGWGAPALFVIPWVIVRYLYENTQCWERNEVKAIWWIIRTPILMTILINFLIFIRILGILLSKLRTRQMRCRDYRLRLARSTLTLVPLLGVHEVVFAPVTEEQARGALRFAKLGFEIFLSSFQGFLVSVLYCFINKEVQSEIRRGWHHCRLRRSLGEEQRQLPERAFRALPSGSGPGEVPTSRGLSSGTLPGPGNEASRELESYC
Protocol: as §1, §2

[4] = biological target: T2, human glucagon receptor (GCGR); assay: Luciferase reporter assay, HEK293/CRE-Luc/hGCGR (Example 17); assay type: cell-based; details: Table 28; CRE-dependent luciferase reporter activity
human GLP1R [5] = biological target: T4, human GLP1R (Homo sapiens, UniProt P43220); assay: b-arrestin 2 recruitment assay, PathHunter CHO/b-arrestin 2/hGLP1R cells; assay type: cell-based; details: read-out: CHO/b-arrestin 2/hGLP1R Emax (% GLP-1)
Protocol: The b-arrestin 2 recruitment assay was performed following manufacter's instructions (Eurofins DiscoverX, #93-0300E2CP0M), with minor modifications. […] Serial dilutions of free payload and LP were performed in 100% DMSO, followed by 1:100 dilution in assay media. Test articles were added to cells (1:5 dilution) with the last well in each serial dilution series serving as a blank control containing only assay media for antibodies and ATLs or assay media with 0.2% DMSO for payload and LP. After a 90-minute incubation at 37° C., PathHunter Detection Reagent (Eurofins DiscoverX, #93-0300E2CP0M) was added to the wells followed by a 1-hour incubation at room temperature. RLUs were measured on EnVision Plate Reader (Perkin Elmer).
(§3) EC50 values for luminescence assays were determined using a four-parameter logistic equation over a 12-point dose response curve (GraphPad Prism).

human GLP1R [6] = biological target: T4, human GLP1R; assay: CRE-Luc cAMP reporter assay, HEK293/CRE-Luc/hGLP1R (Example 24); assay type: cell-based; set-up: engineered to express full-length human GLP1R, cynomolgus GLP1R; expressed in transfected cells; host or cells: HEK293/CRE-Luc
Description: To test the activity of GLP1R agonist payloads, GLP1R agonist linker-payloads (LPs), and anti-GLP1R antibody-tethered ligands (ATLs) of the invention, a cell-based cAMP responsive luciferase reporter assay was developed. To generate the assay cell line, the firefly luciferase gene was placed under the control of a cAMP response element (CRE) located upstream of a minimal promoter and transfected into HEK293 cells and referred to herein as HEK293/CRE-Luc cells. HEK293/CRE-Luc cells were then engineered to express full-length human GLP1R (HEK293/CRE-Luc/hGLP1R), cynomolgus GLP1R (HEK293/CRE-Luc/mfGLP1R), or mouse GLP1R (HEK293/CRE-Luc/mGLP1R).
Serial dilutions of free payload and linker payloads (LP) were performed in 100% DMSO (ATCC, #4-X-5), followed by 1:100 dilution in assay media. Test articles were added to cells (1:5 dilution) with the last well in each serial dilution series serving as a blank control containing only assay media for antibodies and ATLs or assay media with 0.2% DMSO for payloads and LPs. After a 5-hour incubation at 37° C., luciferase activity was determined by addition of ONE-Glo reagent (Promega, #E6130) followed by measurement of relative light units (RLUs) on an EnVision Plate Reader (Perkin Elmer).
as §3

[7] = Plasma stability of payloads (t½)

T4 sequence (P43220 24-463): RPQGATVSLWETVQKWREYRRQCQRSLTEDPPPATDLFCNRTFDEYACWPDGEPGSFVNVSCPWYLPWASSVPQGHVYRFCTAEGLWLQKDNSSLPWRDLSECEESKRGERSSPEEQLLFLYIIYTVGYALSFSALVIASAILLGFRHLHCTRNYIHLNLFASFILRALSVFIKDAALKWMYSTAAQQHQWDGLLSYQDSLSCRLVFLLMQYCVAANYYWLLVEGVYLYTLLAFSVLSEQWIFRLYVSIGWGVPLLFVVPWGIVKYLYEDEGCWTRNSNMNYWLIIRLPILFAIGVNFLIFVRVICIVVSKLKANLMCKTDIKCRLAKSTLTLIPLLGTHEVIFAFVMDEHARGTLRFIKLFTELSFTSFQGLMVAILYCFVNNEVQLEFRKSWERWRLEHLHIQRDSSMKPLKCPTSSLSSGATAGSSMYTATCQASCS
T2 sequence (P47871 26-477): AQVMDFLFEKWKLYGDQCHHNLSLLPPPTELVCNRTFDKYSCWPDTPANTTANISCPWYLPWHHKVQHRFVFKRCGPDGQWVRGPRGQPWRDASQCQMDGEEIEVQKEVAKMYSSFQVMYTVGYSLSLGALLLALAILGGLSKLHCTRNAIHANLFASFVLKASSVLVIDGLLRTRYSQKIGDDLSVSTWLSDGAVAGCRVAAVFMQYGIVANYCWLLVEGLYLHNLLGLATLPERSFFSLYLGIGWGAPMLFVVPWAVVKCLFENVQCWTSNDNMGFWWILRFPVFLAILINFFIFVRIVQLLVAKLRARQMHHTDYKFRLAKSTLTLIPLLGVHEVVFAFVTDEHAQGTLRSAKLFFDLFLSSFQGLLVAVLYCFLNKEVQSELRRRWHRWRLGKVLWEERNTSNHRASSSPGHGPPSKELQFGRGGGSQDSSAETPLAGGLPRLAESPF

For `CCc1cc(OCCCCn2cc(COCCOCCOCCOCCOCCOCCOCCOCCN)nn2)ccc1-c1ccc(C[C@H](NC(=O)[C@H](CC(=O)O)NC(=O)[C@H](CO)NC(=O)[C@@H](NC(=O)C(C)(Cc2ccccc2F)NC(=O)[C@@H](NC(=O)CNC(=O)[C@H](Cc2nn[nH]n2)NC(=O)C(C)(C)C(=O)NCCc2cnc[nH]2)[C@@H](C)O)[C@@H](C)O)C(=O)N[C@@H](CCCc2cc(C)cc(C)c2)C(N)=O)cc1` (some centres unmarked) [LP11, NH2-PEG8-triazole-P8], the “GLP2R EC50 (nM)” value [1] was “Completely inactive”, the “GCGR EC50 (nM)” value [2] was “Completely inactive” and the “GIPR EC50 (nM)” value [3] was “Completely inactive”.
In the case of `CCc1cc(OCCCCn2cc(COCCOCCOCCOCCOCCOCCOCCOCCN)nn2)ccc1-c1ccc(C[C@H](NC(=O)[C@H](CC(=O)O)NC(=O)[C@H](CO)NC(=O)[C@@H](NC(=O)[C@](C)(Cc2ccccc2F)NC(=O)[C@@H](NC(=O)CNC(=O)[C@H](Cc2nn[nH]n2)NC(=O)C(C)(C)C(=O)NCCc2cnc[nH]2)[C@@H](C)O)[C@@H](C)O)C(=O)N[C@@H](CCCc2cc(C)cc(C)c2)C(N)=O)cc1` [M3190], the EC50 [4] is reported as > 200 nM, the Emax (human GLP1R [5]) is reported as 108% and the Emax (human GLP1R [6]; HEK293, read-out: HEK293/CRE-Luc/hGLP1R Emax (% GLP-1)) is reported as 93.9%. The EC50 (human GLP1R [6]; Table 40, CRE-dependent reporter activity, no unit printed in table (text b1912 reads values as M)) was 0.0168 nM.
In the case of `CCc1cc(OCCCCN)ccc1-c1ccc(C[C@H](NC(=O)[C@H](CC(=O)O)NC(=O)[C@H](CO)NC(=O)[C@@H](NC(=O)[C@](C)(Cc2ccccc2F)NC(=O)[C@@H](NC(=O)CNC(=O)[C@H](Cc2nn[nH]n2)NC(=O)C(C)(C)C(=O)NCCc2cnc[nH]2)[C@@H](C)O)[C@@H](C)O)C(=O)N[C@@H](CCCc2cc(C)cc(C)c2)C(N)=O)cc1` [P9, (8S,14S,17S,20S,23S,26S)-8-((2H-tetrazol-5-yl)methyl)-26-(((S)-1-(((S)-1-amino-5-(3,5-dimethylphenyl)-1-oxopentan-2-yl)amino)-3-(4′-(4-aminobutoxy)-2′-ethyl-[1,1′-biphenyl]-4-yl)-1-oxopropan-2-yl)carbamoyl)-17-(2-fluorobenzyl)-14,20-bis((R)-1-hydroxyethyl)-23-(hydroxymethyl)-1-(1H-imidazol-5-yl)-5,5,17-trimethyl-4,6,9,12,15,18,21,24-octaoxo-3,7,10,13,16,19,22,25-octaazaoctacosan-28-oic acid] ({Malonyl(2,2-Me2,histaminyl)}-[Ala(1H-tetrazol-5-yl)]GT[αMePhe(2-F)]TSD[Bip(2'-Et,4'-O(CH2)4NH2)][Nva(5-(3,5-Me2Ph))]-NH2), the “Plasma stability t½” value [7] is reported as >57.8 h.

From patent US20230330254A1 (Regeneron Pharmaceuticals, Inc., priority 2022, published 2023)
